Columns and labels:
[1] = in vivo; choline salt compared with the free acid
[2] = solubility in water; type: physicochemical

Row | SMILES | bioavailability [1] | oral exposure [1] | solubility in water [2]
1 | CC1=NN(c2ccc(C)c(C)c2)C(=O)/C1=N\Nc1cccc(-c2cccc(-c3nnn[nH]3)c2)c1O [Compound A, 2-(3,4-dimethylphenyl)-4-{[2-hydroxy-3′-(1H-tetrazol-5-yl)biphenyl-3-yl]-hydrazono}-5-methyl-2,4-dihydropyrazol-3-one choline] | enhanced | enhanced | –
2 | CC1=NN(c2ccc(C)c(C)c2)C(=O)C1=NNc1cccc(-c2cccc(-c3nnn[nH]3)c2)c1O [free acid, 2-(3,4-dimethylphenyl)-4-{[2-hydroxy-3′-(1H-tetrazol-5-yl)biphenyl-3-yl]-hydrazono}-5-methyl-2,4-dihydropyrazol-3-one] | – | – | poorly soluble

Reference: US7666857B2, “2-(3,4-dimethylphenyl)-4-{[2-hydroxy-3′-(1h-tetrazol-5-yl)biphenyl-3-yl]-hydrazono}-5-methyl-2,4-dihydropyrazol-3-one choline” (SmithKline Beecham Corp., priority 2004, dated 2010)
